Assay results as given in PMC5587747, “A natural chalcone induces apoptosis in lung cancer cells: 3D-QSAR, docking and an in vivo/vitro assay” (Scientific Reports, 2017).
Values after ≈ are worked out from the molar mass of the structure shown. Where two headings read alike, the source gives them in different places.

Experiments:
H292 cells [1] = assay: MTT cytotoxicity assay, H292 cells; assay type: cell-based, human; details: Homo sapiens, NCI-H292; for IC50: H292 cells
Method: (§1) The cytotoxicities of the tested flavonoids were assayed in ten human lung cancer cell lines (A549, H226, H358, H522, H292, H1944, H460, H1792, SW1573, and Calu-1) using MTT reduction assay. Cisplatin (DDP) was selected as a positive control. Compounds 1–37 were dissolved in DMSO to obtain a clear solution of 1 M, which was diluted to 400 mM, 200 mM, 100 mM, 75 mM, 50 mM, 37.5 mM, 25 mM, 10 mM and 1 mM respectively as stock solutions. The DMSO concentration in the medium was kept below 0.10%. Moreover, the stability of tested compounds in experimental buffer was confirmed at 24 h and 48 h respectively by means of HPLC analysis. Then the human lung cancer cells were placed in 96-well culture plates (5 × 10^4 cells/well) and incubated for 24 h. Then, the cells were pretreated with different concentrations of test samples (gradient concentrations 1.0, 10.0, 25.0, 37.5, 50, 75, 100, 200, 400, 1000 μM for compounds 1–37 and DDP) for 48 h. And cell growth was measured by MTT assays. The cytotoxicities against the lung cancer cells were determined systematically and expressed as IC50 value.

H1944 = assay: MTT cytotoxicity assay, H1944 cells; assay type: cell-based, human; details: Homo sapiens, NCI-H1944, lonchocarpin 100 μM, read-out: inhibition rate (IR %)
Method: as §1

SW1573 = assay: MTT cytotoxicity assay, SW1573 cells; assay type: cell-based, human; details: Homo sapiens, lonchocarpin 100 μM, read-out: inhibition rate (IR %)
Method: as §1

H292 cells [2] = assay: Annexin V/PI apoptosis assay by flow cytometry; assay type: cell-based, human; details: H292, 20 μM
Method: Cell apoptosis was evaluated by Annexin V/PI staining assay and analyzed using an apoptosis detection kit (Keygen, Nanjing, China)[37]. Briefly, H292 cells were cultured at the density of 1 × 10^6 cells/well. […] Both attached and floating cells were harvested at the arranged time point, and washed twice with ice-cold PBS, then resuspended in 100 μL binding buffer with Annexin V and PI for 15 min at 37 °C in darkness. Finally, the treated cells were analyzed by flow cytometry (Becton Dickinson, Franklin Lakes, NJ, USA) and Cell Quest software. The apoptosis rate was given by the following formula:
Apoptosis rate % = (number of apoptotic cells)/(number of total cells observed) × 100%.

S180-bearing mice = assay: In vivo antitumor activity in S180 implanted mice; details: 12 days; for Tumor weight/g: mean ± SE
Method: The animal experiments were carried out according to the National Institute of Health Guide for the Care and Use of Laboratory Animals. And the use of experimental animals was approved by the Animal Ethics Committee of Shenyang Pharmaceutical University. Male Kunming mice, were housed in separate cages under standard conditions (20–24 °C), relative humidity (55% ± 5%) and a 12 h light/12 h dark cycle, and allowed to acclimatize for 3 days prior to the start of experiment. Cultured S180 cells were harvested and washed with sterilized PBS (pH 7.2) three times and resuspended at a density of 6 × 10^6 cells/ml. Mice received subcutaneous implants of 0.2 mL/mouse on the right flank by means of hypodermic injection. Then the mice were divided randomly into 5 groups, including model, positive control and treatment groups with 10 mice in each group after inoculation for 24 h. […] Both groups received oral administrations via an intubation needle every day. […] The weight of the mice was recorded every day throughout the experiment. Finally, the mice were sacrificed by cervical dislocation just 2 h after the last administration. Then the tumor and spleen tissues were harvested and weighed immediately. After that the in vivo tumor inhibition ratio was calculated as: Inhibition ratio (%) = 100((A−B)/A), in which A represents the average tumor weight of the control group and B is recorded as the tumor weight of the administration group. Then, the spleen index was recorded using the following formula:
Spleen index = the final weight of spleen (mg)/the final average body weight (g) without tumor.

H358 = assay: MTT cytotoxicity assay, H358 cells; assay type: cell-based, human; details: Homo sapiens, NCI-H358, lonchocarpin 100 μM, read-out: inhibition rate (IR %)
Method: as §1

H522 = assay: MTT cytotoxicity assay, H522 cells; assay type: cell-based, human; details: Homo sapiens, NCI-H522, lonchocarpin 100 μM, read-out: inhibition rate (IR %)
Method: as §1

H460 = assay: MTT cytotoxicity assay, H460 cells; assay type: cell-based, human; details: Homo sapiens, NCI-H460, lonchocarpin 100 μM, read-out: inhibition rate (IR %)
Method: as §1

H226 = assay: MTT cytotoxicity assay, H226 cells; assay type: cell-based, human; details: Homo sapiens, NCI-H226, lonchocarpin 100 μM, read-out: inhibition rate (IR %)
Method: as §1

Calu-1 = assay: MTT cytotoxicity assay, Calu-1 cells; assay type: cell-based, human; details: Homo sapiens, lonchocarpin 100 μM, read-out: inhibition rate (IR %)
Method: as §1

A549 = assay: MTT cytotoxicity assay, A549 cells; assay type: cell-based, human; details: Homo sapiens, lonchocarpin 100 μM, read-out: inhibition rate (IR %)
Method: as §1

Vero cells = assay: Cytotoxicity in Vero cells; assay type: cell-based; details: at 1000 μM
CEM leukaemic cell line = tested on: CEM leukaemic cell line; set-up: method as in PMID 12601679; details: cited from earlier work
[3] = tested on: Bcl-2, Bax, procaspase-3, cleaved caspase-3, cytochrome c, caspase-9 in H292 cells; assay: Western blotting of apoptosis-related proteins; assay type: cell-based, human; details: H292, 20 μM
Method: Western blotting was performed according to the method described in previous research. […] Then, the cells were harvested and then washed with PBS and lysed in a radio immune-precipitation assay buffer for 30 min. BCA protein assay kit (Byontime, Beijing, China) was used for determination of the total protein contents. And the protein samples were dissolved and seperated on 10% SDS-PAGE gels. After that the proteins were transferred to PVDF (polyvinylidene fluoride) (Bio-Rad, Hercules, CA) membranes and incubated sequentially with blocking buffer, primary antibodies, and horseradish peroxidase-conjugated secondary antibodies.

H1792 = assay: MTT cytotoxicity assay, H1792 cells; assay type: cell-based, human; details: Homo sapiens, NCI-H1792, lonchocarpin 100 μM, read-out: inhibition rate (IR %)
Method: as §1

SMILES: CC1(C)C=Cc2c(ccc(C(=O)/C=C/c3ccccc3)c2O)O1 [Compound 34, lonchocarpin]
- inhibition at 100 µM (H292 cells [1]; H292, lonchocarpin 100 μM, read-out: inhibition rate (IR %)): 97.5%
- IC50 (H292 cells [1]; MTT, 48 h, read-out: IC50): 10 µM
- IC50 (H292 cells [1]; Table S2, read-out: pIC50 (converted)): 10 µM
- inhibition at 100 µM (H1944): 69.2%
- inhibition at 100 µM (SW1573): 92.3%
- early apoptosis (lower right quadrant) (H292 cells [2]; 12 h): 7.2%
- late apoptosis (upper right quadrant) (H292 cells [2]; 12 h): 3.9%
- apoptosis (H292 cells [2]; 24 h): about 41.1%
- apoptosis (H292 cells [2]; 48 h): ~47.9%
- Body weight/g After experiment (S180-bearing mice; 25 mg/kg oral daily): 26.45 ± 0.68 g
- Body weight/g Before experiment (S180-bearing mice; 25 mg/kg oral daily): 39.19 ± 2.15 g
- Inhibitory rate (%) (S180-bearing mice; 25 mg/kg oral daily): 57.94%
- Spleen index (S180-bearing mice; 25 mg/kg oral daily): 3.08 mg/g
- Tumor weight/g (S180-bearing mice; 25 mg/kg oral daily): 3.39 ± 0.69 g
- Body weight/g After experiment (S180-bearing mice; 50 mg/kg oral daily): 28.99 ± 0.47 g
- Body weight/g Before experiment (S180-bearing mice; 50 mg/kg oral daily): 36.48 ± 1.38 g
- Inhibitory rate (%) (S180-bearing mice; 50 mg/kg oral daily): 63.40%
- Spleen index (S180-bearing mice; 50 mg/kg oral daily): 3.17 mg/g
- Tumor weight/g (S180-bearing mice; 50 mg/kg oral daily): 2.95 ± 0.66 g
- Body weight/g After experiment (S180-bearing mice; 100 mg/kg oral daily): 28.21 ± 1.98 g
- Body weight/g Before experiment (S180-bearing mice; 100 mg/kg oral daily): 38.71 ± 2.20 g
- Inhibitory rate (%) (S180-bearing mice; 100 mg/kg oral daily): 72.51%
- Spleen index (S180-bearing mice; 100 mg/kg oral daily): 3.30 mg/g
- Tumor weight/g (S180-bearing mice; 100 mg/kg oral daily): 2.21 ± 0.72 g
- inhibition at 100 µM (H358): 51.3%
- inhibition at 100 µM (H522): 63%
- inhibition at 100 µM (H460): 76.3%
- inhibition at 100 µM (H226): 62%
- inhibition at 100 µM (Calu-1): 23.8%
- inhibition at 100 µM (A549): 42.3%
- cytotoxicity in Vero cells (Vero cells; listed as Lonchocarpin): no cytotoxicity
- cytotoxicity in Vero cells (Vero cells; listed as lonchocarpin): no toxicity
- IC50 (CEM leukaemic cell line): 10.4 µg/mL (≈ 33.9 µM)
- Bax protein expression [3]: up-regulation
- caspase-9 [3]: activation
- cytochrome c protein expression [3]: up-regulation
- procaspase-3 protein expression [3]: reduction
- Bcl-2 protein expression ([3]; 24 h and 48 h): obviously down-regulated
- cleaved caspase-3 protein expression ([3]; 48 h): significantly increased
- inhibition at 100 µM (H1792): 46.7%
